The values that follow come from patent US20250115591A1, “NOVEL SULFONAMIDE CARBOXAMIDE COMPOUNDS” (INFLAZOME LIMITED, priority 2017, published 2025).

Data set [1] deals with T1, NLRP3 (Homo sapiens (Human), UniProt Q96P20). As to the kind of experiment: THP-1 cells pyroptosis assay (LPS + nigericin, resazurin read-out). Format: cell-based. As to conditions: 1 μg/ml LPS, 5 μM nigericin. Put shortly:
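LPS-primed (1 μg/ml) human THP-1 cells in serum-free RPMI were exposed to compound (8-point half-log series, top dose as printed "10M") for 3 h at 37 °C, then to nigericin 5 μM for 1 h. Remaining viability was read by resazurin (100 μM, 1-2 h) fluorescence, and IC50 came from 4-parameter variable-slope regression.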
(In general: Alamar Blue is a resazurin reagent that responds to reducing activity.)

Data set [2] can be described thus: PK, intravenous administration. The format is in vivo, male Sprague Dawley rats. As to conditions: male, Sprague Dawley, plasma, rat, intravenous; for AUC: read-out: AUC; for clearance: read-out: Cl; for half-life: read-out: T1/2 (converted); for Vd: read-out: Vdss. As to the method: Pharmacokinetic parameters were determined in male Sprague Dawley rats (Charles River, UK, 250-300 g; or Vital River Laboratory Animal Technology Co Ltd, Beijing, China, 7-9 weeks old). Animals were individually housed during the study and maintained under a 12 h light/dark cycle. Animals had free access to food and water except that orally dosed animals were food deprived overnight prior to the study. For intravenous administration, compounds were formulated as a solution in water or DMSO:PBS [10:90] in 2 mL/kg dosing volume and administered via tail vein. For oral administration, compounds were formulated as a solution in water or DMSO:water [10:90] in 5 mL/kg dosing volume and administered orally. Serial blood samples (about 120-300 μL) were taken from each animal at each of 8 time-points post dose (0.083, 0.25, 0.5, 1, 2, 4, 8 and 24 h). Samples were held on ice for no longer than 30 minutes before centrifugation (10,000 rpm (8,385 g) for 3 minutes; or 5,696 rpm (3,000 g) for 15 minutes) for plasma generation. Plasma was frozen on dry ice prior to bioanalysis. PK parameters were generated from LC-MS/MS data using Dotmatics or Phoenix WinNonlin 6.3 software.

For data set [3], the target named is T1, NLRP3. As to the kind of experiment: Human whole blood IL1β release assay (LPS + nigericin). Format: cell-based. Particulars: human whole blood, 1 μg/ml LPS, nigericin, IL-1β release; read-out: HWB IC50. Put shortly:
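Healthy-donor heparinized whole blood with 1 μg/ml LPS preincubated 3 h at 37 °C with compound (8-point half-log, top 10 μM, 0.1% DMSO), then nigericin 1 h. Supernatant IL-1β by AlphaLISA; IC50 from 4-parameter variable-slope fit.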

Structures are written as SMILES. Counter-ions that a name gives are not always drawn. Like-named read-outs stand apart in the source and are kept apart here.

T1 sequence (Q96P20 whole entry): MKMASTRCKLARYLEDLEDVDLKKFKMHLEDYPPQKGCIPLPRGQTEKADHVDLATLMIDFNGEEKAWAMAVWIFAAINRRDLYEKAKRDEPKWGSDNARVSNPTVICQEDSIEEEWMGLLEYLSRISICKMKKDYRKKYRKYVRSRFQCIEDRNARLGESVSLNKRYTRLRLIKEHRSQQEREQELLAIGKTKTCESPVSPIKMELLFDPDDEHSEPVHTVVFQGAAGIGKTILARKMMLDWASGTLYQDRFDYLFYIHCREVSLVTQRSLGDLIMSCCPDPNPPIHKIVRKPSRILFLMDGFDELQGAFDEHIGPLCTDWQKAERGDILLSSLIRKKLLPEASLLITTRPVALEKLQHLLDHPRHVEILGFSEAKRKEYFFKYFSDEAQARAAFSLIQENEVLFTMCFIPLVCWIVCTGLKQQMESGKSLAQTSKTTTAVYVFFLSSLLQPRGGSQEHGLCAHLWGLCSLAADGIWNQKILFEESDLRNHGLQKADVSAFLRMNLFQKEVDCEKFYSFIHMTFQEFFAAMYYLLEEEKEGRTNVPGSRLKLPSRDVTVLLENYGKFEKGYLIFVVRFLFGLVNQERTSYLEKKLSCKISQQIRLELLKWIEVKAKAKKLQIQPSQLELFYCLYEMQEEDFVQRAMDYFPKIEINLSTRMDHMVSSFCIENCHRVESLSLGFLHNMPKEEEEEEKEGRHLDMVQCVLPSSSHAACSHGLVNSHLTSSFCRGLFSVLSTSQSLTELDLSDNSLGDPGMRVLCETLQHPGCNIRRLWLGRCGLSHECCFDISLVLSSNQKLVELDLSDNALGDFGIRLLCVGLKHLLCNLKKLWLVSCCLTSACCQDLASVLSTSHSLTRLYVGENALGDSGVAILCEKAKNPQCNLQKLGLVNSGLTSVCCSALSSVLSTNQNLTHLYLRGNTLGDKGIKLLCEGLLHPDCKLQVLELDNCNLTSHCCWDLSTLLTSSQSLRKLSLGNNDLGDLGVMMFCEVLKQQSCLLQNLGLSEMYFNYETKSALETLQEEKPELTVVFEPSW

In general, IC50 refers to the concentration needed to halve the response being measured. One may read the AUC as the area under the concentration-time curve, a measure of exposure. As to `CCN1CCCC(S(=O)(=O)NC(=O)Nc2c3c(cc4c2CCC4)CCC3)C1` (stereo not drawn) [Example 9, 1-Ethyl-N-((1,2,3,5,6,7-hexahydro-s-indacen-4-yl)carbamoyl)-piperidine-3-sulfonamide, potassium salt], the IC50 at NLRP3 [1] was below 1000 nM. In addition, in data set [2] (dose 1 mg/kg), the AUC was determined as 2670 ng·h/mL, the clearance was 6.5 mL/min/kg, the half-life was 3.9 h and the Vd amounted to 0.63 L/kg. For the same compound, on NLRP3 [3], the IC50 is below 1000 nM.

Take `CC(C)N1CCCC(S(=O)(=O)NC(=O)Nc2c3c(cc4c2CCC4)CCC3)C1` (stereo not drawn) [Example 31, N-((1,2,3,5,6,7-Hexahydro-s-indacen-4-yl)carbamoyl)-1-iso-propyl-piperidine-3-sulfonamide, potassium salt]: the IC50 at NLRP3 [1] is below 1000 nM. For the same compound, in data set [2] (dose 1 mg/kg), the AUC worked out at 2750 ng·h/mL, the clearance was found to be 6.1 mL/min/kg, the half-life is 4.5 h and the Vd was 0.47 L/kg. Also, at NLRP3 [3], the IC50 was below 1000 nM.

Take `CC(C)N1CCC(S(=O)(=O)NC(=O)Nc2c3c(cc4c2CCC4)CCC3)C1` (stereo not drawn) [Example 41, N-((1,2,3,5,6,7-Hexahydro-s-indacen-4-yl)carbamoyl)-1-iso-propylpyrrolidine-3-sulfonamide, potassium salt]: the IC50 at NLRP3 [1] is below 1000 nM. Also, in data set [2] (dose 1 mg/kg), the AUC stood at 1850 ng·h/mL, the clearance came out at 9.1 mL/min/kg, the half-life is 2.9 h and the Vd came to 0.78 L/kg. Moreover, on NLRP3 [3], the IC50 was below 1000 nM.

In the case of `CCCN1CC(S(=O)(=O)NC(=O)Nc2c3c(cc4c2CCC4)CCC3)C1` [Example 76, N-((1,2,3,5,6,7-Hexahydro-s-indacen-4-yl)carbamoyl)-1-propylazetidine-3-sulfonamide, potassium salt], the IC50 on NLRP3 [1] is below 1000 nM. Besides, in data set [2] (dose 1 mg/kg), the AUC was 2650 ng·h/mL, the clearance was 6.3 mL/min/kg, the half-life was 1 h and the Vd turned out to be 0.25 L/kg. Moreover, the IC50 on NLRP3 [3] was below 1000 nM.

As for `O=C(Nc1c2c(cc3c1CCC3)CCC2)NS(=O)(=O)C1CN(CC2CC2)C1` [Example 94, 1-(Cyclopropylmethyl)-N-((1,2,3,5,6,7-hexahydro-s-indacen-4-yl)carbamoyl)azetidine-3-sulfonamide, potassium salt], the IC50 on NLRP3 [1] was below 1000 nM. In addition, in data set [2] (dose 2.09 mg/kg), the AUC came out at 1410 ng·h/mL, the clearance is 25.2 mL/min/kg, the half-life was 1.1 h and the Vd was 1.62 L/kg. Moreover, on NLRP3 [3], the IC50 is below 1000 nM.

As to `O=C(Nc1c2c(cc3c1CCC3)CCC2)NS(=O)(=O)C1CN(C2CSC2)C1` [Example 109, N-((1,2,3,5,6,7-Hexahydro-s-indacen-4-yl)carbamoyl)-1-(thietan-3-yl)azetidine-3-sulfonamide, potassium salt], the IC50 on NLRP3 [1] was below 1000 nM. In data set [2] (dose 1 mg/kg), the AUC stood at 1730 ng·h/mL, the clearance turned out to be 9.6 mL/min/kg, the half-life is 1.3 h and the Vd amounted to 0.64 L/kg. Besides, the IC50 on NLRP3 [3] was below 1000 nM.

Take `COc1cc(-c2ccc3c(c2NC(=O)NS(=O)(=O)c2ccc(=O)n(C(C)C)c2)CCC3)ccn1` [Example 153, 1-Isopropyl-N-((5-(2-methoxypyridin-4-yl)-2,3-dihydro-1H-inden-4-yl)carbamoyl)-6-oxo-1,6-dihydropyridine-3-sulfonamide]: the IC50 at NLRP3 [1] was below 1000 nM. Further, in data set [2] (dose 1 mg/kg), the AUC was 511 ng·h/mL, the clearance turned out to be 32.6 mL/min/kg, the half-life was 1.1 h and the Vd came to 1.21 L/kg. In addition, at NLRP3 [3], the IC50 was below 1000 nM.
